The values below come from publication PMC11541931, “The structure and function of P5A-ATPases” (Nature Communications, 2024).

For this test, the target named is T1, CtSpf1 (Thermochaetoides thermophila, UniProt G0S4Z4).
T1 construct: gene CTHT_0032200; full length, last two C-terminal arginines removed; C-terminal TEV site-GGGGS-GFP-His10, tag kept; made in S. cerevisiae PAP1500; in nanodiscs
Description: cryo-EM structure, […] A. The conditions noted are these: 1 mM ADP with 2 mM AlF4-, Mg2+; MSP1E3D1 nanodisc, pH 7.5; nucleotide-binding site, E1P-ADP state.

T1 sequence (G0S4Z4 entry or part of it): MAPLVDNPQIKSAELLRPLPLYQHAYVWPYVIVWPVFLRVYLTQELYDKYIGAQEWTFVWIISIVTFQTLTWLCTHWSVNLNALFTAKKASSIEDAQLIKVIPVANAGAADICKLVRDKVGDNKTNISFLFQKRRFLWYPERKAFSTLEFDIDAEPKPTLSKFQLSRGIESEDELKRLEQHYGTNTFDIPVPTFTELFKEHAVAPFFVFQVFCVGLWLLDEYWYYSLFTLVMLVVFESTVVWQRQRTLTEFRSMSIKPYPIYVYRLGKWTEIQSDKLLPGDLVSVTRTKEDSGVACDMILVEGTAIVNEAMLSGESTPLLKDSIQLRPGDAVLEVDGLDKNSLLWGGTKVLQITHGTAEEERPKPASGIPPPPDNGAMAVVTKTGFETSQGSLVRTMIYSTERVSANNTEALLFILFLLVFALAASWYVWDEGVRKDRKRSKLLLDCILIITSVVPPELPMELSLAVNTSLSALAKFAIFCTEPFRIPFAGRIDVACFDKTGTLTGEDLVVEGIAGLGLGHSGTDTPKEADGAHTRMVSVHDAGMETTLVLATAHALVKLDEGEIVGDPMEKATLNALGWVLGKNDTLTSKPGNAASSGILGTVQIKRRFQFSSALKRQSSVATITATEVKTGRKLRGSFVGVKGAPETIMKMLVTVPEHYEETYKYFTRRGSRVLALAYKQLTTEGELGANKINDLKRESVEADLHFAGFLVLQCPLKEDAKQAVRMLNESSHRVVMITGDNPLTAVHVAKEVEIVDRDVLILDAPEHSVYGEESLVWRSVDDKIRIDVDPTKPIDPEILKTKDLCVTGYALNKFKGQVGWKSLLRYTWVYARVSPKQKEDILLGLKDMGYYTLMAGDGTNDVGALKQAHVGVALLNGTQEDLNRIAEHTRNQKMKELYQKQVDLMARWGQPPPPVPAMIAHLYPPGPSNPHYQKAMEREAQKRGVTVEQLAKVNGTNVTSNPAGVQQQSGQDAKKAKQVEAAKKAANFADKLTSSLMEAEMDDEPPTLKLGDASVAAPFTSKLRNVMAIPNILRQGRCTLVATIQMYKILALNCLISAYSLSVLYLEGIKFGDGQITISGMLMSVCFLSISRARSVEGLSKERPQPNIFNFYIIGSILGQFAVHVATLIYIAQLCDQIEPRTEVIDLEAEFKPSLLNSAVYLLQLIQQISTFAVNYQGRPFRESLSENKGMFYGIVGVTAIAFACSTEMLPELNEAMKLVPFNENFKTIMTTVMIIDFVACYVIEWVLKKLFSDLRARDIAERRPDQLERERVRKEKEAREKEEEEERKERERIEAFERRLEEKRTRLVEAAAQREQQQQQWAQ

As to `Nc1ncnc2c1ncn2[C@@H]1O[C@H](COP(=O)(O)OP(=O)(O)O)[C@@H](O)[C@H]1O` [ADP], the “cryo-EM structure, 3.4 A” value was “We retrieved two separate maps with ADP-AlF4^− bound”.
